Measured values as given in US20140037715A1, “DISULFIRAM FORMULATION AND USES THEREOF” (UNIVERSITY OF WOLVERHAMPTON, priority 2010, published 2014).

How the values were obtained:
breast cancer cell lines = assay: MTT cytotoxicity assay in breast cancer cell lines; settings: CuCl2 (10 μM) containing medium, 72 hours
Experimental: After 72 hours, the viability of the treated cells was determined by MTT assay.
The viability was determined by MTT assay.
(§1) All cell lines were cultured in DMEM (Lonza, Wokingham, UK) supplemented with 10% FCS, 50 units/ml penicillin, 50 μg/ml streptomycin. For in vitro cytotoxicity assay, cells [5,000/well (10,000/well for MDA-MB-231PAC10)] were cultured overnight in 96-well flat-bottomed microtiter plates then exposed to drugs for 72 h and subjected to a standard MTT assay (Plumb J A, et al Cancer Res 1989; 49(16):4435-40).
The cells were then subjected to MTT analysis as described above.

Stability in plasma = assay type: in vitro ADME; settings: after 25 hours
Stability in whole blood = assay type: in vitro ADME; settings: after 5 hours
[1] = cited from earlier work
S180 sarcoma = S180 sarcoma growth in mice; assay type: in vivo; settings: S180 sarcoma bearing mice; DS 30 mg/kg oral, CuCl2 3 mg/kg oral
Experimental: An S180 mouse sarcoma (FIGS. 6A-6C) and MDA-MB-231 breast cancer cells (1×10^6) (FIG. 6D-6F) were subcutaneously injected into the rare frank of BALB/c and CD1 Nu/Nu mice respectively (S180: n=5; MDA-MB-231: n=6).
Five-week-old female athymic CD1 nude mice used in this study were housed under pathogen-free conditions. Human MDA-MB-231 breast cancer or mouse S180 sarcoma cells (1×10^6) were injected s.c. at one flank of the mice. Tumour volume (V) was determined by the equation: V=(L×W^2)×0.5, where L is the length and W is the width of the tumour. When xenografts reached volumes of ˜200 mm^3, the mice showing tumours were randomly grouped for the following treatments. The first day of drug treatment was designated as day 1.
Five groups (5 mice/group) were set up for mice with S180 sarcoma: 1. control, No treatment; 2. […] DS, non-encapsulated DS 30 mg/kg dissolved in vegetable oil, oral administration; 5. DS/Cu: DS 30 mg/kg oral and CuCl2 3 mg/kg oral.
The animals were subjected to different treatments when their tumours reached 2 mm in diameter. The drugs were administrated on Monday, Wednesday and Friday for two successive weeks. […] For the combination treatment groups, CuCl2 were administered in the morning.

T47D = assay: MTT cytotoxicity assay, single drugs and combinations with Lipo-DS/Cu; assay type: cell-based; settings: Homo sapiens, 72 h
Experimental: as §1
(§2) The cells were then subjected to MTT analysis as described above. […] The combination index (CI) was determined by mutually exclusive equations.

MDA-MB-231 = assay: as above; assay type: cell-based; settings: Homo sapiens, MDA-MB-231, 72 h
Experimental: as §1, §2

MCF7 = assay: as above; assay type: cell-based; settings: Homo sapiens, MCF7, 72 h
Experimental: as §1, §2

What does the source list for `CCN(CC)C(=S)SSC(=S)N(CC)CC` [DS, disulfiram]?
cytotoxicity to BC cell lines (breast cancer cell lines): comparable cytotoxicity; remaining in plasma (Stability in plasma): about 15%; remaining in whole blood (Stability in whole blood): about 10%; blood concentration ([1]; after oral administration of a 500 mg dose): below the limit of detection; half-life in the blood stream ([1]; degraded by glutathione reductase system in erythrocytes): 4 min; in vivo anticancer effect (S180 sarcoma): not detected

Which IC50 (T47D) does the source give for `COc1cccc2c1C(=O)c1c(O)c3c(c(O)c1C2=O)C[C@@](O)(C(=O)CO)C[C@@H]3O[C@H]1C[C@H](N)[C@H](O)[C@H](C)O1` [Dox alone, doxorubicin] here?
Its IC50 is 160 nM.

And the IC50 (MDA-MB-231)?
Its IC50 is 178 nM.

What about the IC50 (MCF7) of the same molecule?
Its IC50 is 440 nM.

For `Nc1ccn([C@@H]2O[C@H](CO)[C@@H](O)C2(F)F)c(=O)n1` [GEM alone, gemcitabine], which IC50 (T47D) is on record?
Its IC50 is 35 nM.

And the IC50 (MDA-MB-231)?
Its IC50 is 12.3 nM.

What about the IC50 (MCF7) of the same molecule?
Its IC50 is 22.1 nM.

Which IC50 (T47D) does the source give for `CC(=O)O[C@H]1C(=O)[C@@]2(C)[C@H]([C@H](OC(=O)c3ccccc3)[C@]3(O)C[C@H](OC(=O)[C@H](O)[C@@H](NC(=O)c4ccccc4)c4ccccc4)C(C)=C1C3(C)C)[C@]1(OC(C)=O)CO[C@@H]1C[C@@H]2O` [Pac alone, paclitaxel] here?
The IC50 was 2.6 nM.

What about the IC50 (MDA-MB-231) of the same molecule?
The IC50 was 9.3 nM.

What about the IC50 (MCF7) of the same molecule?
Its IC50 is 4.3 nM.
